Source: PubChem BioAssay AID328 (DTP/NCI, 2004)
Values joined by “and” are separate entries in the source; they are usually repeats but may differ in a detail not shown here. Equal values may be shown once. Toxic doses and inconclusive results are not listed.

Test system: BDF1 mice, P388 leukemia ip, median survival T/C
Assay: NCI In Vivo Anticancer Drug Screen. Data for tumor model P388 Leukemia (intraperitoneal) in B6D2F1 (BDF1) mice
Conditions: endpoint: median survival time, higher = longer survival
Method in brief: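 Each value expresses how treatment altered survival: treated-mouse outcome over vehicle-mouse outcome, both groups bearing the transplanted tumour.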

[1] = dose: 50.0 mg/kg/injection, schedule: Q01DX009 (ip), vehicle: saline
[2] = dose: 100.0 mg/kg/injection, schedule: Q04DX003 (ip), vehicle: saline
[3] = dose: 100.0 mg/kg/injection, schedule: Q04DX003 (ip), vehicle: Klucel (hydroxypropylcellulose) (HPC)
[4] = dose: 200.0 mg/kg/injection, schedule: Q04DX003 (ip), vehicle: Klucel (hydroxypropylcellulose) (HPC)
[5] = dose: 400.0 mg/kg/injection, schedule: Q01DX009 (ip), vehicle: Klucel (hydroxypropylcellulose) (HPC)
[6] = dose: 400.0 mg/kg/injection, schedule: Q04DX003 (ip), vehicle: Klucel (hydroxypropylcellulose) (HPC)
[7] = dose: 100.0 mg/kg/injection, schedule: Q01DX001 (ip), vehicle: saline
[8] = dose: 200.0 mg/kg/injection, schedule: Q01DX001 (ip), vehicle: saline

SMILES: O=NN(CCCl)C(=O)NCCCl
- T/C (dose: 0.5 mg/kg/injection, schedule: Q01DX001 (ip), vehicle: saline): 111 % of control
- T/C (dose: 1.0 mg/kg/injection, schedule: Q01DX001 (ip), vehicle: saline): 105 % of control
- T/C (dose: 2.0 mg/kg/injection, schedule: Q01DX009 (ip), vehicle: other): 172 % of control and 180 % of control
- T/C (dose: 3.13 mg/kg/injection, schedule: Q01DX010 (ip), vehicle: saline): 255 % of control and 260 % of control
- T/C (dose: 3.2 mg/kg/injection, schedule: Q01DX009 (ip), vehicle: saline + alcohol): 195 % of control
- T/C (dose: 4.0 mg/kg/injection, schedule: Q01DX009 (ip), vehicle: other): 227 % of control and 276 % of control
- T/C (dose: 4.8 mg/kg/injection, schedule: Q01DX009 (ip), vehicle: saline + alcohol): 275 % of control and 276 % of control
- T/C (dose: 5.0 mg/kg/injection, schedule: Q01DX001 (ip), vehicle: saline): 164 % of control
- T/C (dose: 6.25 mg/kg/injection, schedule: Q01DX010 (ip), vehicle: saline): 300 % of control
- T/C (dose: 6.4 mg/kg/injection, schedule: Q01DX009 (ip), vehicle: saline + alcohol): 319 % of control and 532 % of control
- T/C (dose: 7.5 mg/kg/injection, schedule: Q01DX001 (ip), vehicle: saline + alcohol): 157 % of control and 200 % of control
- T/C (dose: 7.5 mg/kg/injection, schedule: Q01DX001 (ip), vehicle: saline): 211 % of control
- T/C (dose: 8.0 mg/kg/injection, schedule: Q01DX009 (ip), vehicle: other): 270 % of control and 514 % of control
- T/C (dose: 10.0 mg/kg/injection, schedule: Q01DX001 (ip), vehicle: saline): 212 % of control
- T/C (dose: 12.0 mg/kg/injection, schedule: Q01DX001 (ip), vehicle: Klucel (hydroxypropylcellulose) (HPC)): 119 % of control
- T/C (dose: 15.0 mg/kg/injection, schedule: Q01DX001 (ip), vehicle: saline + alcohol): 253 % of control and 176 % of control
- T/C (dose: 15.0 mg/kg/injection, schedule: Q01DX001 (ip), vehicle: saline): 159 % of control
- T/C (dose: 16.0 mg/kg/injection, schedule: Q01DX001 (ip), vehicle: saline + alcohol): 196 % of control
- T/C (dose: 16.0 mg/kg/injection, schedule: Q01DX009 (ip), vehicle: other): 100 % of control
- T/C (dose: 20.0 mg/kg/injection, schedule: Q01DX001 (ip), vehicle: saline): 238 % of control and 154 % of control
- T/C (dose: 20.0 mg/kg/injection, schedule: Q#XHX024 (ip), vehicle: saline): 229 % of control
- T/C (dose: 21.6 mg/kg/injection, schedule: Q01DX001 (ip), vehicle: other): 175 % of control
- T/C (dose: 21.6 mg/kg/injection, schedule: Q01DX001 (ip), vehicle: saline + alcohol): 152 % of control
- T/C (dose: 30.0 mg/kg/injection, schedule: Q01DX001 (ip), vehicle: saline): 247 % of control and 564 % of control and 159 % of control
- T/C (dose: 30.0 mg/kg/injection, schedule: Q#XHX024 (ip), vehicle: saline): 546 % of control
- T/C (dose: 32.0 mg/kg/injection, schedule: Q01DX001 (ip), vehicle: saline + alcohol): 225 % of control
- T/C (dose: 36.0 mg/kg/injection, schedule: Q01DX001 (ip), vehicle: other): 236 % of control
- T/C (dose: 36.0 mg/kg/injection, schedule: Q01DX001 (ip), vehicle: saline + alcohol): 499 % of control
- T/C (dose: 40.0 mg/kg/injection, schedule: Q01DX001 (ip), vehicle: saline): 266 % of control
- T/C (dose: 60.0 mg/kg/injection, schedule: Q01DX001 (ip), vehicle: saline + alcohol): 88 % of control
- T/C (dose: 64.0 mg/kg/injection, schedule: Q01DX001 (ip), vehicle: saline + alcohol): 281 % of control

SMILES: O=NN(CCCl)C(=O)NC1C2CC3CC(C2)CC1C3 (configuration not stated)
- T/C (dose: 5.56 mg/kg/injection, schedule: Q01DX009 (ip), vehicle: other): 207 % of control
- T/C (dose: 8.3 mg/kg/injection, schedule: Q04DX003 (ip), vehicle: other): 159 % of control
- T/C (dose: 8.33 mg/kg/injection, schedule: Q01DX009 (ip), vehicle: other): 287 % of control
- T/C (dose: 12.5 mg/kg/injection, schedule: Q01DX009 (ip), vehicle: other): 281 % of control and 305 % of control
- T/C (dose: 12.5 mg/kg/injection, schedule: Q04DX003 (ip), vehicle: other): 263 % of control
- T/C (dose: 18.7 mg/kg/injection, schedule: Q01DX009 (ip), vehicle: other): 188 % of control
- T/C (dose: 18.7 mg/kg/injection, schedule: Q04DX003 (ip), vehicle: other): 222 % of control
- T/C (dose: 25.0 mg/kg/injection, schedule: Q01DX009 (ip), vehicle: other): 231 % of control
- T/C (dose: 50.0 mg/kg/injection, schedule: Q01DX009 (ip), vehicle: other): 100 % of control

SMILES: Nc1ccn(CC(=O)c2ccco2)c(=O)n1
- T/C (dose: 6.25 mg/kg/injection, schedule: Q01DX009 (ip), vehicle: saline): 109 % of control
- T/C (dose: 12.5 mg/kg/injection, schedule: Q01DX009 (ip), vehicle: saline): 95 % of control
- T/C (dose: 25.0 mg/kg/injection, schedule: Q01DX009 (ip), vehicle: saline): 95 % of control and 109 % of control
- T/C [1]: 86 % of control
- T/C (dose: 50.0 mg/kg/injection, schedule: Q04DX003 (ip), vehicle: saline): 105 % of control
- T/C [2]: 105 % of control

SMILES: C/C(=N\NC(=O)CC(=O)N/N=C(\C)c1ccncc1)c1ccncc1
- T/C (dose: 75.0 mg/kg/injection, schedule: Q01DX009 (ip), vehicle: saline with Tween-80): 99 % of control
- T/C (dose: 150.0 mg/kg/injection, schedule: Q01DX009 (ip), vehicle: saline with Tween-80): 90 % of control
- T/C (dose: 300.0 mg/kg/injection, schedule: Q01DX009 (ip), vehicle: saline with Tween-80): 94 % of control

SMILES: CC(=O)Nc1ccc2c([N+](=O)[O-])cccc2c1-c1c(NC(C)=O)ccc2c([N+](=O)[O-])cccc12
- T/C (dose: 100.0 mg/kg/injection, schedule: Q01DX009 (ip), vehicle: Klucel (hydroxypropylcellulose) (HPC)): 110 % of control
- T/C [3]: 109 % of control
- T/C [4]: 100 % of control
- T/C [5]: 95 % of control
- T/C [6]: 100 % of control

SMILES: COc1cc(OC)c(NC(=S)Nc2cc(C)ccc2OC)cc1Cl
- T/C (dose: 12.5 mg/kg/injection, schedule: Q01DX009 (ip), vehicle: DMSO): 97 % of control
- T/C (dose: 25.0 mg/kg/injection, schedule: Q01DX009 (ip), vehicle: DMSO): 93 % of control

SMILES: OC1CC2C3C4C1C1C2C3C41 (configuration not stated)
- T/C [7]: 95 % of control
- T/C [3]: 115 % of control
- T/C [8]: 86 % of control
- T/C [4]: 115 % of control
- T/C [6]: 90 % of control

SMILES: CC(O)(C(=O)O)c1ccccc1 (configuration not stated) (tested in a mixture with another compound)
- T/C [7]: 103 % of control
- T/C [2]: 100 % of control
- T/C [8]: 107 % of control
- T/C (dose: 200.0 mg/kg/injection, schedule: Q04DX003 (ip), vehicle: saline): 113 % of control
- T/C (dose: 400.0 mg/kg/injection, schedule: Q01DX001 (ip), vehicle: saline): 107 % of control
- T/C (dose: 400.0 mg/kg/injection, schedule: Q04DX003 (ip), vehicle: saline): 95 % of control

SMILES: CC(=O)CC(=O)NC(C)CCc1ccccc1 (configuration not stated)
- T/C (dose: 100.0 mg/kg/injection, schedule: Q04DX003 (ip), vehicle: saline with Tween-80): 104 % of control
- T/C (dose: 200.0 mg/kg/injection, schedule: Q04DX003 (ip), vehicle: saline with Tween-80): 109 % of control
- T/C (dose: 400.0 mg/kg/injection, schedule: Q04DX003 (ip), vehicle: saline with Tween-80): 109 % of control

SMILES: OCCC[P+](c1ccccc1)(c1ccccc1)c1ccccc1
- T/C (dose: 50.0 mg/kg/injection, schedule: Q04DX003 (ip), vehicle: Klucel (hydroxypropylcellulose) (HPC)): 113 % of control
- T/C [3]: 109 % of control

SMILES: CCCC(C(=O)c1ccc(OC)cc1)C(O)(C(F)(F)F)C(F)(F)F (configuration not stated)
- T/C [3]: 95 % of control
- T/C [4]: 100 % of control
- T/C [6]: 100 % of control

SMILES: CCCCCCNC1=CC(=O)CC(C)(C)C1
- T/C [1]: 105 % of control
- T/C (dose: 100.0 mg/kg/injection, schedule: Q01DX009 (ip), vehicle: saline): 99 % of control
- T/C (dose: 200.0 mg/kg/injection, schedule: Q01DX009 (ip), vehicle: saline): 107 % of control

SMILES: BrC1c2cccc3cccc(c23)C1Br (configuration not stated)
- T/C (dose: 100.0 mg/kg/injection, schedule: Q01DX009 (ip), vehicle: saline with Tween-80): 150 % of control
- T/C (dose: 200.0 mg/kg/injection, schedule: Q01DX009 (ip), vehicle: saline with Tween-80): 88 % of control

SMILES: N#Cc1c(N)sc(N)c1C#N
- T/C (dose: 200.0 mg/kg/injection, schedule: Q01DX009 (ip), vehicle: Klucel (hydroxypropylcellulose) (HPC)): 115 % of control
- T/C [5]: 110 % of control
